Measurements taken from ChEMBL document CHEMBL1201862, “PubChem BioAssay data set” (2004).
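48-hour exposure; five concentrations; linearly interpolated endpoints. Abbreviation: GI50, concentration required for 50% inhibition of growth.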 Calls of active or inactive are those of the source. Rule as the data show it: active = GI50 up to about 1.1 µM and inactive = higher.

Assays:
Assay in all cases: NCI tumour cell line growth inhibition, 48 h
[1] = test system: U-251
[2] = test system: HCC 2998
[3] = test system: SK-OV-3
[4] = test system: ACHN
[5] = test system: SK-MEL-5
[6] = test system: LOX IMVI
[7] = test system: HOP-92
[8] = test system: TK-10
[9] = test system: UACC-257
[10] = test system: UACC-62
[11] = test system: A549
[12] = test system: OVCAR-4
[13] = test system: NCI/ADR-RES
[14] = test system: SK-MEL-2
[15] = test system: M14
[16] = test system: SNB-19
[17] = test system: MCF7
[18] = test system: SF-539
[19] = test system: MOLT-4
[20] = test system: MDA-N

| SMILES | GI50 [1] | GI50 [2] | GI50 [3] | GI50 [4] | GI50 [5] | GI50 [6] | GI50 [7] | GI50 [8] | GI50 [9] | GI50 [10] | GI50 [11] | GI50 [12] | GI50 [13] | GI50 [14] | GI50 [15] | GI50 [16] | GI50 [17] | GI50 [18] | GI50 [19] | GI50 [20] |
| --- | --- | --- | --- | --- | --- | --- | --- | --- | --- | --- | --- | --- | --- | --- | --- | --- | --- | --- | --- | --- |
| CC(C)(CC1(C)NC(=O)NC1=O)OCc1ccccc1 (stereo not given) | > 100 µM (inactive) | > 100 µM (inactive) | > 100 µM (inactive) | > 100 µM (inactive) | > 100 µM (inactive) | > 100 µM (inactive) | > 100 µM (inactive) | > 100 µM (inactive) | > 100 µM (inactive) | > 100 µM (inactive) | > 100 µM (inactive) | > 100 µM (inactive) | > 100 µM (inactive) | > 100 µM (inactive) | > 100 µM (inactive) | > 100 µM (inactive) | > 100 µM (inactive) |  |  |  |
| CS/C(=N\c1ccccc1)N(c1ccccc1)c1nc(=[N+](C)C)ss1.[O-][Cl+3]([O-])([O-])[O-] | 2.34 µM (inactive) | 5.35 µM (inactive) | 23.9 µM (inactive) | 5.42 µM (inactive) | 1.41 µM (inactive) | 3.15 µM (inactive) | 2.79 µM (inactive) | 14.5 µM (inactive) | 2.05 µM (inactive) | 0.0441 µM (active) | 14.5 µM (inactive) | 9.46 µM (inactive) |  | 2.01 µM (inactive) | 1.13 µM (inactive) | 2.22 µM (inactive) |  | 4.15 µM (inactive) | 1.5 µM (inactive) |  |
| CCOC(=O)c1c(-c2ccccc2)c(-c2ccccc2)cn1C | > 10 µM (inactive) | > 10 µM (inactive) | > 10 µM (inactive) | > 10 µM (inactive) |  |  | > 10 µM (inactive) | > 10 µM (inactive) | > 10 µM (inactive) | > 10 µM (inactive) | > 10 µM (inactive) | > 10 µM (inactive) | 5.82 µM (inactive) | 8.15 µM (inactive) | > 10 µM (inactive) | > 10 µM (inactive) |  | > 10 µM (inactive) | > 10 µM (inactive) | > 10 µM (inactive) |
| CCOC(=O)NNC(=O)NCCCCNC(=O)NNC(=O)OCC | > 100 µM (inactive) |  | > 100 µM (inactive) | > 100 µM (inactive) | > 100 µM (inactive) | > 100 µM (inactive) | > 100 µM (inactive) | > 100 µM (inactive) | > 100 µM (inactive) | > 100 µM (inactive) | > 100 µM (inactive) |  | > 100 µM (inactive) | > 100 µM (inactive) | > 100 µM (inactive) | > 100 µM (inactive) |  | > 100 µM (inactive) | > 100 µM (inactive) | > 100 µM (inactive) |
| Oc1cccc(-c2ccc3c4c2O[C@H]2c5[nH]c6ccccc6c5C[C@@]5(O)[C@@H](C3)N(CC3CC3)CC[C@]425)c1 |  |  |  | 2.23 µM (inactive) | 3.48 µM (inactive) | 1.8 µM (inactive) | 2.13 µM (inactive) | 2.24 µM (inactive) |  |  | 1.78 µM (inactive) | 1.61 µM (inactive) | 2.11 µM (inactive) | 2.46 µM (inactive) | 1.7 µM (inactive) | 1.64 µM (inactive) |  | 1.68 µM (inactive) |  | 1.67 µM (inactive) |
| Nc1nc(Cl)c2ncn(Cc3ccc(CCl)cc3)c2n1 | 3.56 µM (inactive) | 0.497 µM (active) | 15.1 µM (inactive) | 9.62 µM (inactive) | 15.3 µM (inactive) | 5.41 µM (inactive) | 1.64 µM (inactive) | 16.6 µM (inactive) | 12.5 µM (inactive) | 2.23 µM (inactive) | 15.7 µM (inactive) | 15.6 µM (inactive) | 3.33 µM (inactive) | 11.5 µM (inactive) | 14 µM (inactive) | 6.78 µM (inactive) | 2.81 µM (inactive) | 3.13 µM (inactive) | 2.96 µM (inactive) |  |
| O=c1n(-c2ccccc2)c(=O)n2n1C1C=CC2CCCCCC1 | > 100 µM (inactive) | > 100 µM (inactive) | > 100 µM (inactive) | > 100 µM (inactive) | > 100 µM (inactive) | > 100 µM (inactive) | > 100 µM (inactive) | > 100 µM (inactive) | > 100 µM (inactive) | > 100 µM (inactive) | > 100 µM (inactive) | > 100 µM (inactive) | > 100 µM (inactive) | > 100 µM (inactive) | > 100 µM (inactive) | > 100 µM (inactive) | > 100 µM (inactive) | > 100 µM (inactive) | > 100 µM (inactive) |  |
| Nc1c(C(=O)c2ccccc2)nnc2ccccc12 | 34.5 µM (inactive) | 23.4 µM (inactive) |  | 24.8 µM (inactive) | 16.7 µM (inactive) | 32.4 µM (inactive) | 18.8 µM (inactive) | 24.3 µM (inactive) | 28.2 µM (inactive) | 17.5 µM (inactive) | 37.3 µM (inactive) | 29.8 µM (inactive) | 21.5 µM (inactive) | 17.4 µM (inactive) | 39.3 µM (inactive) | 37.9 µM (inactive) | 20.4 µM (inactive) | 27.4 µM (inactive) | 36.1 µM (inactive) |  |
| ClC1=NN=C(c2c[nH]c3ccccc23)CC1NCc1ccccc1 (stereo not given) | > 100 µM (inactive) |  | > 100 µM (inactive) | > 100 µM (inactive) | > 100 µM (inactive) | > 100 µM (inactive) | > 100 µM (inactive) | > 100 µM (inactive) | > 100 µM (inactive) | > 100 µM (inactive) | > 100 µM (inactive) |  | > 100 µM (inactive) | > 100 µM (inactive) | > 100 µM (inactive) | > 100 µM (inactive) |  | > 100 µM (inactive) | > 100 µM (inactive) | > 100 µM (inactive) |
| CSc1ccc(-c2cc(-c3nc4ccccc4[nH]3)nc3[nH]c(-c4nc5ccccc5[nH]4)cc(=O)c23)cc1 | 93.8 µM (inactive) | 5.33 µM (inactive) | > 100 µM (inactive) | 29.4 µM (inactive) |  | 42.5 µM (inactive) | > 100 µM (inactive) | > 100 µM (inactive) | > 100 µM (inactive) | 92.5 µM (inactive) | > 100 µM (inactive) | 82.4 µM (inactive) | > 100 µM (inactive) | > 100 µM (inactive) | 82.4 µM (inactive) | > 100 µM (inactive) | 34 µM (inactive) | > 100 µM (inactive) | > 100 µM (inactive) |  |
| CS(=O)(=O)c1nc(-c2cc3c(c(S(C)(=O)=O)n2)CCC3)cc2c1CCCCC2 | 41.9 µM (inactive) | > 100 µM (inactive) | 11.9 µM (inactive) | 45 µM (inactive) | > 100 µM (inactive) | > 100 µM (inactive) |  | 42.7 µM (inactive) | > 100 µM (inactive) | 22.9 µM (inactive) | > 100 µM (inactive) | > 100 µM (inactive) | 49.5 µM (inactive) | 24.8 µM (inactive) | > 100 µM (inactive) | 34.4 µM (inactive) |  |  | > 100 µM (inactive) | > 100 µM (inactive) |
| CC(C)=CC(=O)OC1C2C(C)C(=O)OC2C(O)C(C)C2C=CC(=O)C21C (stereo not given) | 4.06 µM (inactive) | 5.47 µM (inactive) | 7.23 µM (inactive) |  | 3.32 µM (inactive) | 0.918 µM (active) | 4.09 µM (inactive) |  | 3.94 µM (inactive) | 1.47 µM (inactive) | 8.65 µM (inactive) | 3.13 µM (inactive) | 4.3 µM (inactive) | 4.15 µM (inactive) |  | 7.38 µM (inactive) | 2.43 µM (inactive) | 3.61 µM (inactive) | 1.23 µM (inactive) |  |
| CC(C)CCCCCCCCCCCCC(=O)NCC(=O)NC1C(C)OC(Nc2ncnc3c2ncn3C)C(O)C1O (stereo not given) | 1.21 µM (inactive) | 1.28 µM (inactive) | 3.1 µM (inactive) |  | > 74.3 µM (inactive) | 5.3 µM (inactive) | 2.41 µM (inactive) |  | 19.4 µM (inactive) | 3.18 µM (inactive) | 8.28 µM (inactive) | 6.41 µM (inactive) | > 100 µM (inactive) | 8.34 µM (inactive) |  | 2.88 µM (inactive) | > 100 µM (inactive) | 2.82 µM (inactive) | > 100 µM (inactive) |  |
| C=C1C(O)CC[C@]2(C)C1C1OC(C)(C)O[C@]13CC(=O)C(C)=C([C@H]1OC(C)(C)OC12)C3(C)C (stereo not given in full) | > 100 µM (inactive) | > 100 µM (inactive) | > 100 µM (inactive) | 92 µM (inactive) | > 100 µM (inactive) | > 100 µM (inactive) |  | > 100 µM (inactive) | > 100 µM (inactive) | > 100 µM (inactive) | > 100 µM (inactive) | 96.4 µM (inactive) | > 100 µM (inactive) |  |  | > 100 µM (inactive) | 65.8 µM (inactive) | > 100 µM (inactive) | 58.6 µM (inactive) |  |
| Oc1cc(-c2ccc(F)cc2)nc2ncccc12 |  | > 100 µM (inactive) | 30.3 µM (inactive) | 73.8 µM (inactive) |  | 45.5 µM (inactive) | 45.3 µM (inactive) | > 100 µM (inactive) | 30.5 µM (inactive) | 33.8 µM (inactive) | 52.8 µM (inactive) | 78.9 µM (inactive) | 32.9 µM (inactive) | 33.5 µM (inactive) | 61.5 µM (inactive) | 80.2 µM (inactive) | 38.5 µM (inactive) | 41 µM (inactive) | 52.7 µM (inactive) |  |
| C[N+]1(CCCC[N+]2(C)CCCCCCC2)CCCCCCC1 | > 100 µM (inactive) |  |  | > 100 µM (inactive) | > 100 µM (inactive) | > 100 µM (inactive) | 77.1 µM (inactive) | > 100 µM (inactive) | > 100 µM (inactive) | > 100 µM (inactive) | > 100 µM (inactive) | > 100 µM (inactive) | > 100 µM (inactive) | > 100 µM (inactive) | > 100 µM (inactive) | > 100 µM (inactive) |  |  | > 100 µM (inactive) | > 100 µM (inactive) |
